From the supplement of paper PMC10307832

What was measured:
Test in all cases: relative viability (nuclei count vs DMSO), 5 days (fraction); higher = more cells survive
[1] = compound: COC1=CC=C(C=C1)CN2C=CC3=C2C=C(C=C3)C(=O)NO + CC1(C)CCC(c2ccc(Cl)cc2)=C(CN2CCN(c3ccc(C(=O)NS(=O)(=O)c4ccc(N[C@H](CCN5CCOCC5)CSc5ccccc5)c(S(=O)(=O)C(F)(F)F)c4)cc3)CC2)C1 [Navitoclax] (partner 0.5 µM)
In short: (§1)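 Cells from lung cancer lines were seeded into 1536-well plates and, one day later, dosed by pin tool. Treatments were either a single drug or a fixed dose of an anchor drug with five library-drug doses (not always all listed) in √10 steps. After 5 days, nuclei were stained in a one-step fixation (final 0.05% Triton X-100, 1% formaldehyde, 1 ug/ml Hoechst) and counted on 4× images, and relative viability is the treated-to-vehicle nuclei ratio, as the median of duplicate plates.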

[2] = compound: COC1=CC=C(C=C1)CN2C=CC3=C2C=C(C=C3)C(=O)NO + COc1cc2c(Oc3ccc(NC(=O)C4(C(=O)Nc5ccc(F)cc5)CC4)cc3F)ccnc2cc1OCCCN1CCOCC1 [Foretinib] (partner 0.25 µM)
In short: as §1

Veliparib = compound: C[C@]1(c2nc3c(C(N)=O)cccc3[nH]2)CCCN1 [Veliparib]
In short: (§2)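 Five library-drug doses, separated by factors of √10, were pinned into 1536-well plates holding lung cancer cell lines after an overnight stay at 37 °C. Cells were fixed, permeabilised and Hoechst-stained in one step after 5 days without medium change, then imaged at 4×. Viability compares treated-well with vehicle-well nuclei, counted in MetaXpress, as a median across plates. Passing plates had control CV below 25% and at least one doubling.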

[3] = compound: COC1=CC=C(C=C1)CN2C=CC3=C2C=C(C=C3)C(=O)NO
In short: as §2

Cell Line | relative viability ([1]; first compound 0.08 µM) | relative viability ([1]; first compound 0.253 µM) | relative viability ([1]; first compound 0.8 µM) | relative viability ([1]; first compound 2.53 µM) | relative viability ([1]; first compound 8 µM) | relative viability ([2]; first compound 0.253 µM) | relative viability ([2]; first compound 0.8 µM) | relative viability ([2]; first compound 2.53 µM) | relative viability ([2]; first compound 8 µM) | relative viability (Veliparib; 0.02 µM) | relative viability (Veliparib; 0.06325 µM) | relative viability (Veliparib; 0.2 µM) | relative viability (Veliparib; 0.6325 µM) | relative viability (Veliparib; 2 µM) | relative viability ([3]; 0.08 µM) | relative viability ([3]; 0.253 µM) | relative viability ([3]; 0.8 µM) | relative viability ([3]; 2.53 µM) | relative viability ([3]; 8 µM) | relative viability ([2]; first compound 0.08 µM)
NCI-H2228 | 0.955 | 1.19 | 1.04 | 1.1 | 0.411 | 1 | 0.933 | 0.857 | 0.609 | 0.909 | 1.08 | 1.15 | 0.954 | 0.932 | 1.06 | 1.05 | 0.996 | 1.07 | 0.851 | –
COR-L 105 | – | 1.15 | 0.844 | 0.851 | 0.551 | 1.43 | 0.853 | 1.08 | 0.212 | 0.843 | 0.794 | 0.895 | 0.835 | 1.08 | 0.679 | 0.928 | 0.936 | 0.799 | 0.565 | 0.681
RERF-LC-KJ | 0.934 | 0.852 | 0.903 | 1.04 | 0.926 | 0.862 | 0.915 | 0.947 | 0.917 | 0.964 | 0.939 | 1.01 | 0.938 | 1.01 | 0.956 | 1.03 | 0.984 | 1.03 | 0.969 | 0.639
NCI-H1703 | 1.49 | 1.09 | 1.27 | 1.01 | 1.08 | 0.374 | 0.385 | 0.368 | 0.307 | 0.816 | 0.839 | 0.852 | 0.878 | 1.11 | 0.699 | 1.07 | 0.959 | 0.956 | 0.904 | –
NCI-H647 | – | 1.04 | 1 | 0.959 | 1.21 | 1.34 | 1.09 | 1.2 | 1.38 | 1.02 | 0.945 | 1.03 | 0.813 | 1.03 | 0.754 | 0.909 | 1.02 | 0.989 | 0.869 | 0.707
NCI-H1299 | 1.01 | 1.06 | 1.07 | 1.07 | 1.02 | 1.1 | 1.15 | 1.09 | 1.05 | 0.993 | 1 | 1.01 | 0.968 | 1.02 | 1.01 | 1.04 | 1.03 | 1.02 | 0.99 | 1.09
ChaGo-K-1 | – | 0.932 | 1.13 | 0.911 | 0.887 | 0.932 | 0.898 | 0.802 | 0.869 | 0.842 | 0.978 | 0.966 | 0.965 | 0.775 | – | 1.04 | 1.01 | 1 | 0.834 | –
LK-2 | – | 0.906 | 1 | 0.958 | 0.747 | 1.66 | 1.4 | 0.949 | 1.03 | 0.861 | 1.06 | 1.08 | 0.916 | 0.964 | – | 1.03 | 1.07 | 0.992 | 0.949 | –
NCI-H460 | 1.04 | 1.15 | 1.08 | 1.15 | 1.1 | 1.06 | 0.973 | 0.974 | 1.02 | 0.93 | 0.952 | 0.967 | 0.931 | 0.964 | 0.902 | 1 | 0.994 | 0.992 | 0.968 | 0.53
SK-LU-1 | 0.849 | 1 | 1 | 0.815 | 0.745 | 0.766 | 0.799 | 0.86 | 0.74 | 1.04 | 1.06 | 1.06 | 0.98 | 1.01 | 0.974 | 0.997 | 1.02 | 1.04 | 0.966 | 0.756
LU99A | – | 0.787 | 0.803 | 0.847 | 0.878 | 0.904 | 0.841 | 0.865 | 0.836 | 0.984 | 0.902 | 0.771 | 0.863 | 0.994 | – | 0.932 | 1.11 | 0.916 | 0.932 | –
UMC-11 | 0.197 | 0.341 | 0.316 | 0.317 | 0.339 | 1.21 | 1.02 | 1.05 | 1 | 1.09 | 0.997 | 0.964 | 0.926 | 0.983 | 0.711 | 0.965 | 1.02 | 0.907 | 0.964 | –
NCI-H1650 | 1.07 | 1.32 | 1.17 | 1.18 | 0.925 | 1.14 | 1.29 | 1.27 | 0.766 | – | 0.846 | 1.01 | 0.875 | 0.874 | 0.787 | 0.87 | 1.01 | 0.946 | 0.689 | 0.764
PC-3 [JPC-3] | 0.822 | 0.831 | 0.83 | 0.859 | 0.74 | 1.04 | 1.09 | 1.08 | 0.962 | 1 | 0.968 | 1.05 | 1.04 | 1.06 | 1 | 1.03 | 1.11 | 1.08 | 0.968 | 1
